Measurements reported in patent publication US20250250241A1, “COMPOUND, PREPARATION AND USE THEREOF IN RUBBER BLENDS AND VEHICLE TIRES, AS AN ANTI-AGING AGENT, ANTIOXIDANT, ANTIOXIDANT AND/OR COLORING AGENT” (Continental Reifen Deutschland GmbH, priority 2022, published 2025).

Assay: Measurement of oxidation induction time (OIT) by DSC
Format: physicochemical
Conditions: with liquid polyisoprene LIR-50, DSC; for Time until onset of oxidation (oxidation induction time) at 150° C.: isothermal 150° C., experiments terminated after 900 minutes; for Time until onset of oxidation (oxidation induction time) at 150° C. / Time until onset of oxidation (oxidation induction time) at 165° C.: O2 atmosphere; for Time until onset of oxidation (oxidation induction time) at 165° C.: isothermal 165° C.; for Time until onset of oxidation (oxidation induction time) at 180° C.: isothermal 180° C., O2 atmosphere 50 ml/min
Procedure: Measurement of Oxidation Induction Time (OIT)
The compound of formula III) was investigated under laboratory conditions for its potential protective effect as an aging stabilizer by measurement of the oxidation induction time.
To this end the compounds of formula III) and 6PPD, in each case together with a polymer (liquid synthetic polyisoprene (IR), LIR-50, Kuraray, weight average molecular weight distribution Mw=54 000 g/mol, glass transition temperature Tg=−63° C.), were heated at constant temperature at three different temperatures (180° C.; 165° C.; 150° C.) until onset of oxidation.
Heating to 180° C. was carried out as follows: • Starting temperature 35° C., heating to 170° C. at a heating rate of 20 K/min (kelvin per minute), heating to 180° C. at a heating rate of 1 K/min; purge gas: nitrogen (N2), volume flow 50 ml/min).
The specimen was kept under isothermal conditions at 180° C. under an N2 atmosphere for 5 minutes and the atmosphere was then switched to an O2 atmosphere (volume flow 50 ml/min).
The heating to 165° C. was carried out analogously by first heating to 155° C. at a heating rate of 20 K/min (kelvin per minute) and then heating to 165° C. at a heating rate of 1 K/min.
The heating to 150° C. was carried out analogously by first heating to 140° C. at a heating rate of 20 K/min (kelvin per minute) and then heating to 150° C. at a heating rate of 1 K/min.
Oxidation was determined over one peak using DSC (differential scanning calorimetry).
The time in minutes until oxidation was measured in each case.

SMILES | Time until onset of oxidation (oxidation induction time) at 150° C. [min] | Time until onset of oxidation (oxidation induction time) at 165° C. [min] | Time until onset of oxidation (oxidation induction time) at 180° C. [min]
CC(C)CC(C)Nc1ccc(Nc2ccccc2)cc1 (stereo not drawn) [Formula 6PPD, N-(1,3-dimethylbutyl)-N′-phenyl-p-phenylenediamine] | >900 | 356 ± 10 | 116 ± 10
CC(C)CC(C)Nc1ccc2c(c1)C(=O)Nc1ccccc1N2 (stereo not drawn) [Formula III), 2-(1,3-dimethylbutylamino)-5,10-dihydro-dibenzo[b,e][1,4]diazepin-11-one] | >900 | 459 ± 10 | 169 ± 10
